{
  "source": "patent US9844546B2",
  "about": "“Antibody against human HIF hydroxylase” (OXFORD UNIVERSITY INNOVATION LIMITED, priority 2001, dated 2017)",
  "key": {"HIF-α/pVHL interaction": {"test_system": "HIF-α/pVHL interaction", "assay": "Interaction of HIF-1α and pVHL.HA reticulocyte IVTTs, anti-HA co-immunoprecipitation", "type": "biochemical, human", "details": "100 μM added to the HIF-1α IVTT", "procedure": "^35S-Methionine labelled […] subunits and pVHL.HA were produced separately by IVTT (in vitro transcription and translation) in reticulocyte lysates. IVTTs were performed under different conditions, mixed, and assayed for interaction by anti-HA co-immunoprecipitation. These in vitro assays allowed analysis of the HIFα/pVHL interaction using the recombinant proteins.\nLabelled HIF-1α and pVHL.HA were generated separately in reticulocyte lysates (IVTT), in the presence or absence of Co (II), desferrioxamine, or Fe(II). Lysates were mixed in various combinations, and interactions assayed by anti-HA immunoprecipitation.\n• 1. G. L. Semenza, Genes Dev 14, 1983-91. (2000). • 2. N. V. Iyer, et al., Genes Dev. 12, 149-162 (1997). • 3. E. Maltepe, J. V. Schmidt, D. Baunoch, C. A. Bradfield, M. C. Simon, Nature 386, 403-407 (1997). • 4. G. L. Wang, B.-H. Jiang, E. A. Rue, G. L. Semenza, Proc. Natl. Acad. Sci. USA 92, 5510-5514 (1995). • 5. S. Salceda, J. Caro, J. Biol. Chem. 272, 22642-22647 (1997). • 6. L. E. Huang, J. Gu, M. Schau, H. F. Bunn, Proc. Natl. Acad. Sci. USA 95, 7987-7992 (1998). • 7. M. S. Wiesener, et al., Blood 92, 2260-2268 (1998). • 8. P. H. Maxwell, et al., Nature 399, 271-275 (1999). • 9. K. Iwai, et al., Proc. Natl. Acad. Sci. USA 96, 12436-12441 (1999). • 10. J. Lisztwan, G. Imbert, C. Wirbelauer, M. Gstaiger, W. Krek, Genes Dev 13, 1822-33 (1999). • 11. M. E. Cockman, et al., J Biol Chem (2000). • 12. M. Ohh, et al., Nat Cell Biol 2, 423-7. (2000). • 13. T. Kamura, et al., Proc Natl Acad Sci USA 97, 10430-5. (2000). • 14. K. Tanimoto, Y. Makino, T. Pereira, L. Poellinger, Embo J 19, 4298-309. (2000). • 15. M. A. Goldberg, S. P. Dunning, H. F. Bunn, Science 242, 1412-1415 (1988). • 16. G. L. Wang, G. L. Semenza, Blood 82, 3610-3615 (1993). • 17. G. L. Semenza, Cell 98, 281-284 (1999). • 18. Hypoxia (<0.1% oxygen) was obtained in a workstation with O2, CO2 and temperature control (Ruskinn Technologies, Leeds, UK). For hypoxic harvest, buffers were preincubated in the chamber overnight. […]"}, "[1]": {"test_system": "HIF-α prolyl-hydroxylase (HIF-PH) of cell extract", "assay": "Modifying activity (HIF-PH) of cell extract on HIF substrate (Gal/HIF-1α549-582/VP16 or 19:WT), pVHL capture assay", "type": "biochemical, mammalian", "details": "titration, cell extract", "procedure": "The unlabelled HIF-1α substrate was immunopurified on beads, washed, and aliquots incubated under different test conditions in buffer or cell extract. After further washing, the beads were assayed for ability to interact with 35-S labelled pVHL IVTT (21) which was then visualised by fluorography.\nThe capture of labelled pVHL by different HIF substrates was monitored after exposure to various test conditions.\nWe went on to test a series of 2-oxoglutarate analogues which act as competitive inhibitors of this class of enzyme (29) for ability to inhibit HIF-PH as assessed by the ability of cell extracts to modify either HIF polypeptide (19:WT) or a HIF fusion protein (Gal/HIF-1α549-582/VP16) so as to promote pVHL capture. […] In one such experiment the effect of N-oxalylglycine on pVHL capture by a biotinylated HIF polypeptides as substrate was monitored. The WT:19 and 19:Pro564Hyp polypeptides described above were used as substrates. […] The effect of dimethyl-oxalyglycine on HIF-1α expression was also studied. HIF-1α immunoblot analysis of extracts of Hep3B and U2OS cells exposed to dimethyl-oxalylgylcine (0, 0.1 or 1.0 mM) for 6 hours was carried out. […]"}},
  "data": [
    {"compound": "[Cl][Fe][Cl]", "note": "[Fe(II), ferrous chloride, reference compound]", "values": [
      {"measurement": "capture of HIF-1α by pVHL.HA", "setting": "HIF-α/pVHL interaction", "value": "greatly enhanced capture"},
      {"measurement": "Fe(II) supplementation giving full activation of modifying activity", "setting": "[1]", "value": 5, "unit": "µM"}
    ]}
  ]
}
